Measured values taken from patent publication US20250163072A1, “MACROCYCLIC COMPOUNDS FOR THE TREATMENT OF CANCER” (Hoffmann-La Roche Inc., priority 2021, published 2025).

Test: GSH reaction rates (inherent GSH reactivity)
Format: in vitro ADME
Details: 1 μM compound, 5 mM GSH, 37° C.
How it was run: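 Compounds at 1 μM were incubated at 37° C with or without 5 mM GSH in 100 mM potassium phosphate pH 7.4 for 0-6 h. Samples were quenched with acetonitrile/N-ethylmaleimide and the remaining compound quantified by LC-MS/MS to derive T1/2.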

CO[C@@H](C)c1ncc(N2CCOCC2)cc1-c1c2c3cc(ccc3n1CC(F)(F)F)-c1csc(n1)C[C@H](NC(=O)[C@H](C(C)C)N(C)C(=O)[C@H]1CCN(C(=O)[C@H](F)Cl)C1)C(=O)N1CCC[C@H](N1)C(=O)OCC(C)(C)C2 (atropisomer, axis not shown; (M)) [Example 25, (3S)-1-[(2R)-2-chloro-2-fluoro-acetyl]-N-[(1S)-1-[[(7S,13S)-(20M)-20-[2-[(1S)-1-methoxyethyl]-5-morpholino-3-pyridyl]-17,17-dimethyl-8,14-dioxo-21-(2,2,2-trifluoroethyl)-15-oxa-4-thia-9,21,27,28-tetrazapentacyclo[17.5.2.12,5.19,13.022,26]octacosa-1(25),2,5(28),19,22(26),23-hexaen-7-yl]carbamoyl]-2-methyl-propyl]-N-methyl-pyrrolidine-3-carboxamide]
Remaining at 6 hr in GSH (%) (pH 7.4, 6 hr): 100% | T1/2(hour) in GSH (potassium phosphate buffer pH 7.4): stable (If % depletion after 6 hour incubation is less than 20%, compounds were reported as stable)
